Earlier results as cited in US8257918B2, “Intelligent nanomedicine integrating diagnosis and therapy” (The Regents of the University of California, priority 2004, dated 2012).

Tests used:
tumor = conditions: comparison with doxorubicin

COc1cccc2c1C(=O)c1c(O)c3c(c(O)c1C2=O)C[C@@](O)(C(=O)CO)C[C@@H]3O[C@H]1C[C@H](NC(=O)[C@@H](N)CC(C)C)[C@H](O)[C@H](C)O1 [Leu-Dox, N-1-leucyl-doxorubucin]
anti-tumor efficiency relative to doxorubicin (tumor): more efficient anti-tumor agents than doxorubicin

COc1cccc2c1C(=O)c1c(O)c3c(c(O)c1C2=O)C[C@@](O)(C(=O)CO)C[C@@H]3O[C@H]1C[C@H](N)[C@H](O)[C@H](C)O1 [doxorubicin]
cumulative doses that engender a substantial risk of cardiotoxicity: exceed 550 mg/m^2
